Measured values reported in ChEMBL document CHEMBL4177526, “Discovery and structure activity relationship of the first potent cryptosporidium FIKK kinase inhibitor” (Bioorg Med Chem, 2017).

Assays:
[1] = molecular target: Aurora kinase B (Homo sapiens) (UniProt Q96GD4); test: Inhibition of human Aurora B (1 to 344 residues) assessed as residual activity at 500 nM in presence of 33P-ATP by filter binding assay relative to control
[2] = molecular target: MAP kinase-activated protein kinase 3 (Homo sapiens) (UniProt Q16644); test: Inhibition of human MAPKAPK3 (2 to 382 residues) assessed as residual activity at 500 nM in presence of 33P-ATP by filter binding assay relative to control
[3] = molecular target: Ephrin type-B receptor 1 (Homo sapiens) (UniProt P54762); test: Inhibition of human EPHB1 (565 to 984 residues) assessed as residual activity at 500 nM in presence of 33P-ATP by filter binding assay relative to control
[4] = molecular target: Ephrin type-B receptor 4 (Homo sapiens) (UniProt P54760); test: Inhibition of human EPHB4 (561 to 987 residues) assessed as residual activity at 500 nM in presence of 33P-ATP by filter binding assay relative to control
[5] = molecular target: Mitogen-activated protein kinase 14 (Homo sapiens) (UniProt Q16539); test: Inhibition of human p38alpha (1 to 360 residues) assessed as residual activity at 500 nM in presence of 33P-ATP by filter binding assay relative to control
[6] = molecular target: Protein kinase C zeta type (Homo sapiens) (UniProt Q05513); test: Inhibition of human PKCzeta (2 to 592 residues) assessed as residual activity at 500 nM in presence of 33P-ATP by filter binding assay relative to control
[7] = tested on: TGF-beta receptor type-1 (Homo sapiens), P36897 [T204D]; test: Inhibition of human TGFbetaR1 T204D mutant (200 to 501 residues) at 500 nM in presence of 33P-ATP by filter binding assay relative to control
[8] = tested on: Serine/threonine-protein kinase OSR1 (Homo sapiens), O95747 [T185E]; test: Inhibition of human OSR1 T185E mutant (1 to 342 residues) assessed as residual activity at 500 nM in presence of 33P-ATP by scintillation counting method relative to control
[9] = molecular target: Serine/threonine-protein kinase PAK 6 (Homo sapiens) (UniProt Q9NQU5); test: Inhibition of human PAK6 (2 to 681 residues) assessed as residual activity at 500 nM in presence of 33P-ATP by scintillation counting method relative to control
[10] = molecular target: Ribosomal protein S6 kinase alpha-1 (Homo sapiens) (UniProt Q15418); test: Inhibition of human RSK1 (1 to 735 residues) assessed as residual activity at 500 nM in presence of 33P-ATP by filter binding assay relative to control
[11] = molecular target: MAP kinase-activated protein kinase 2 (Homo sapiens) (UniProt P49137); test: Inhibition of human MAPKAPK2 (46 to 400 residues) assessed as residual activity at 500 nM in presence of 33P-ATP by filter binding assay relative to control
[12] = molecular target: Dual specificity tyrosine-phosphorylation-regulated kinase 1A (Homo sapiens) (UniProt Q13627); test: Inhibition of human DYRK1A (1 to 502 residues) assessed as residual activity at 500 nM in presence of 33P-ATP by filter binding assay relative to control
[13] = molecular target: Tyrosine-protein kinase JAK2 (Homo sapiens) (UniProt O60674); test: Inhibition of JAK2 (unknown origin) assessed as residual activity at 500 nM relative to control
[14] = molecular target: Serine/threonine-protein kinase 24 (Homo sapiens) (UniProt Q9Y6E0); test: Inhibition of human MST3 (1 to 431 residues) assessed as residual activity at 500 nM in presence of 33P-ATP by filter binding assay relative to control
[15] = molecular target: Death-associated protein kinase 1 (Homo sapiens) (UniProt P53355); test: Inhibition of human DAPK1 (1 to 363 residues) assessed as residual activity at 500 nM in presence of 33P-ATP by filter binding assay relative to control
[16] = molecular target: Serine/threonine-protein kinase Pink1, mitochondrial (Tribolium castaneum) (UniProt D6WMX4); test: Inhibition of Tribolium castaneum PINK1 (1 to 570 residues) assessed as residual activity at 500 nM in presence of 33P-ATP by scintillation counting method relative to control
[17] = molecular target: Serine/threonine-protein kinase TBK1 (Homo sapiens) (UniProt Q9UHD2); test: Inhibition of human TBK1 (1 to 729 residues) assessed as residual activity at 500 nM in presence of 33P-ATP by filter binding assay relative to control
[18] = molecular target: Mitogen-activated protein kinase 13 (Homo sapiens) (UniProt O15264); test: Inhibition of human p38delta (1 to 365 residues) assessed as residual activity at 500 nM in presence of 33P-ATP by filter binding assay relative to control
[19] = molecular target: Serine/threonine-protein kinase Sgk1 (Homo sapiens) (UniProt O00141); test: Inhibition of human SGK1 (60 to 431 residues) assessed as residual activity at 500 nM in presence of 33P-ATP by filter binding assay relative to control
[20] = molecular target: serine/threonine-protein kinase D1 (Homo sapiens) (UniProt Q15139); test: Inhibition of human PKD1 (2 to 912 residues) at 500 nM in presence of 33P-ATP by filter binding assay relative to control
[21] = molecular target: Serine/threonine-protein kinase MARK1 (Homo sapiens) (UniProt Q9P0L2); test: Inhibition of human MARK1 (2 to 795 residues) assessed as residual activity at 500 nM in presence of 33P-ATP by filter binding assay relative to control
[22] = molecular target: Mitogen-activated protein kinase 9 (Homo sapiens) (UniProt P45984); test: Inhibition of human JNK2 (1 to 424 residues) assessed as residual activity at 500 nM in presence of 33P-ATP by filter binding assay relative to control
[23] = molecular target: Serine/threonine-protein kinase pim-3 (Homo sapiens) (UniProt Q86V86); test: Inhibition of human PIM3 (2 to 326 residues) assessed as residual activity at 500 nM in presence of 33P-ATP by filter binding assay relative to control
[24] = molecular target: Aurora kinase A (Homo sapiens) (UniProt O14965); test: Inhibition of human Aurora-A (2 to 403 residues) assessed as residual activity at 500 nM in presence of 33P-ATP by filter binding assay relative to control
[25] = molecular target: Phosphorylase b kinase gamma catalytic chain, skeletal muscle/heart isoform (Homo sapiens) (UniProt Q16816); test: Inhibition of human PHKgamma1 (2 to 297 residues) assessed as residual activity at 500 nM in presence of 33P-ATP by filter binding assay relative to control
[26] = molecular target: Tyrosine-protein kinase Yes (Homo sapiens) (UniProt P07947); test: Inhibition of human YES1 (1 to 543 residues) at 500 nM by filter binding assay relative to control

Sequence of Serine/threonine-protein kinase 24 (Homo sapiens) (Q9Y6E0 whole entry, looked up, the tested form may be a part): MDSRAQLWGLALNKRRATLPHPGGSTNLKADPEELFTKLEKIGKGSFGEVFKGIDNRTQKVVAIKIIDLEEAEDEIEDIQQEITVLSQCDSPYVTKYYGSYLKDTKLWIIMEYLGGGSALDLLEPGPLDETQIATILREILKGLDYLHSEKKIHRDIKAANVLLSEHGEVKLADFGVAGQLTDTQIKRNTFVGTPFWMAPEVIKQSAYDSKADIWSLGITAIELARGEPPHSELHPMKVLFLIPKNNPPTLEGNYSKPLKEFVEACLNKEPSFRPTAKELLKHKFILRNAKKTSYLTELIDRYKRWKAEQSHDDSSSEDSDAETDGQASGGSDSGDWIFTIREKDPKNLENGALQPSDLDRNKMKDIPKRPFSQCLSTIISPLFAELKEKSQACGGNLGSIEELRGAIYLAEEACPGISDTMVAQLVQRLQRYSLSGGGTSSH
Sequence of Serine/threonine-protein kinase MARK1 (Homo sapiens) (Q9P0L2 whole entry, looked up, the tested form may be a part): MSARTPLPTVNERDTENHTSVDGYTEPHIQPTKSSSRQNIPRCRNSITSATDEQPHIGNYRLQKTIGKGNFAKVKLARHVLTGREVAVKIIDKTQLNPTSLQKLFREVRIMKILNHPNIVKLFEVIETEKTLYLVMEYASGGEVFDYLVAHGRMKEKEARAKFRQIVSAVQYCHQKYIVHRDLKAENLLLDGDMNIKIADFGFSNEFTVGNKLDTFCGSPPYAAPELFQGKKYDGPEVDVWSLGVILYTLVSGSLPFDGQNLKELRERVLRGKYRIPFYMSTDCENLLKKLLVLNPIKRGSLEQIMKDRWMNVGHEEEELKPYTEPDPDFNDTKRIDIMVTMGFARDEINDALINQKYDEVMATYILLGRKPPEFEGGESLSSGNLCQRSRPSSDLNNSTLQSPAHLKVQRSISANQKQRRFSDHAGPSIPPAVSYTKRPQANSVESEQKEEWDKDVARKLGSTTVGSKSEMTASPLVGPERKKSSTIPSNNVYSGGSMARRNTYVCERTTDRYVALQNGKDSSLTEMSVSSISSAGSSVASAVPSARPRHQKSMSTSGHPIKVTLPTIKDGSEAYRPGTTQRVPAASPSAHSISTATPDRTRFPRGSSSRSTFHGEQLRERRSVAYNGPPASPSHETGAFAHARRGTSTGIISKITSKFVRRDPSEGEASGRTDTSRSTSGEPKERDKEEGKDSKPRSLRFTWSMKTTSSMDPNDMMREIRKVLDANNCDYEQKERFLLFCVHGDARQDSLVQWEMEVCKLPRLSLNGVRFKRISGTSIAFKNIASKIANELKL
Sequence of MAP kinase-activated protein kinase 3 (Homo sapiens) (Q16644 whole entry, looked up, the tested form may be a part): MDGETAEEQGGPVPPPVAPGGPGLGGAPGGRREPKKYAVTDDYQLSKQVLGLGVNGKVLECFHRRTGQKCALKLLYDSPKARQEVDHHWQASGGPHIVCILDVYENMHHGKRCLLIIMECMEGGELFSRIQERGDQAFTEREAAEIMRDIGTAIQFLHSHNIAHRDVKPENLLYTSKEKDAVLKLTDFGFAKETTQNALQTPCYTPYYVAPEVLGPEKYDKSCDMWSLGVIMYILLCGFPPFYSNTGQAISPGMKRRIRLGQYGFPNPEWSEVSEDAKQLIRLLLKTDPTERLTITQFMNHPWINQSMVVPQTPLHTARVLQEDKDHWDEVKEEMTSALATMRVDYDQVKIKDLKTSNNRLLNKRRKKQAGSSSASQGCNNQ
Sequence of Phosphorylase b kinase gamma catalytic chain, skeletal muscle/heart isoform (Homo sapiens) (Q16816 whole entry, looked up, the tested form may be a part, canonical isoform): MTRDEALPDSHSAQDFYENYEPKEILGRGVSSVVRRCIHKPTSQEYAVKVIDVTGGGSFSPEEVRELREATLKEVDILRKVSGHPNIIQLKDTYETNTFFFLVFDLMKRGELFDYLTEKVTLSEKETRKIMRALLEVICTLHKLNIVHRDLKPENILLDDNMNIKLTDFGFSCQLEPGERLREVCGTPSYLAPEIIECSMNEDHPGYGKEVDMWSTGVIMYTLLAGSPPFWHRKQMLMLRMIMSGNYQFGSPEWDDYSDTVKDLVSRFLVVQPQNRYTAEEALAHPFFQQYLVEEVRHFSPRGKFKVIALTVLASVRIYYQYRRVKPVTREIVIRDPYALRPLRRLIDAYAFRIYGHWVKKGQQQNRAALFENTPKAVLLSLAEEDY
Sequence of Serine/threonine-protein kinase TBK1 (Homo sapiens) (Q9UHD2 whole entry, the tested form may be a part): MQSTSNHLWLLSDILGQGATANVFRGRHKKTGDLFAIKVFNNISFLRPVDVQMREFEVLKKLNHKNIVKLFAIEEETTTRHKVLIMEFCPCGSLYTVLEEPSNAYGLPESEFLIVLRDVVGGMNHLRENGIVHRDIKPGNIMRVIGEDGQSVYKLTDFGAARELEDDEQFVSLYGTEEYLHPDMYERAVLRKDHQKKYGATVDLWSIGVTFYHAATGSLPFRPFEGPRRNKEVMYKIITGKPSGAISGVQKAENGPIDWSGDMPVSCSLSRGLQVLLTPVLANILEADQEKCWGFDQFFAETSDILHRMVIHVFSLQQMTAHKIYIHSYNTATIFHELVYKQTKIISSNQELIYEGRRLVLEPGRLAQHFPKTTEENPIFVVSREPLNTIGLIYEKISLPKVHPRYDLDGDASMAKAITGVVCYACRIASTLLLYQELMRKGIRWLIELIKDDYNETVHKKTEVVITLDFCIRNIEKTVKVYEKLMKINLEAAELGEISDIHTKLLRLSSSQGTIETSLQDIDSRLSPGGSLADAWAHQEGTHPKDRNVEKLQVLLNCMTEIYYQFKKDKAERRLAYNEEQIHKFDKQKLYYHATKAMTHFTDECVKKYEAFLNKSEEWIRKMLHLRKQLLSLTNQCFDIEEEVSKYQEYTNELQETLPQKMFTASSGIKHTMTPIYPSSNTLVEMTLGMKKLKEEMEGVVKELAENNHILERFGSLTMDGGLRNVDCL
Sequence of Ephrin type-B receptor 4 (Homo sapiens) (P54760 whole entry, the tested form may be a part): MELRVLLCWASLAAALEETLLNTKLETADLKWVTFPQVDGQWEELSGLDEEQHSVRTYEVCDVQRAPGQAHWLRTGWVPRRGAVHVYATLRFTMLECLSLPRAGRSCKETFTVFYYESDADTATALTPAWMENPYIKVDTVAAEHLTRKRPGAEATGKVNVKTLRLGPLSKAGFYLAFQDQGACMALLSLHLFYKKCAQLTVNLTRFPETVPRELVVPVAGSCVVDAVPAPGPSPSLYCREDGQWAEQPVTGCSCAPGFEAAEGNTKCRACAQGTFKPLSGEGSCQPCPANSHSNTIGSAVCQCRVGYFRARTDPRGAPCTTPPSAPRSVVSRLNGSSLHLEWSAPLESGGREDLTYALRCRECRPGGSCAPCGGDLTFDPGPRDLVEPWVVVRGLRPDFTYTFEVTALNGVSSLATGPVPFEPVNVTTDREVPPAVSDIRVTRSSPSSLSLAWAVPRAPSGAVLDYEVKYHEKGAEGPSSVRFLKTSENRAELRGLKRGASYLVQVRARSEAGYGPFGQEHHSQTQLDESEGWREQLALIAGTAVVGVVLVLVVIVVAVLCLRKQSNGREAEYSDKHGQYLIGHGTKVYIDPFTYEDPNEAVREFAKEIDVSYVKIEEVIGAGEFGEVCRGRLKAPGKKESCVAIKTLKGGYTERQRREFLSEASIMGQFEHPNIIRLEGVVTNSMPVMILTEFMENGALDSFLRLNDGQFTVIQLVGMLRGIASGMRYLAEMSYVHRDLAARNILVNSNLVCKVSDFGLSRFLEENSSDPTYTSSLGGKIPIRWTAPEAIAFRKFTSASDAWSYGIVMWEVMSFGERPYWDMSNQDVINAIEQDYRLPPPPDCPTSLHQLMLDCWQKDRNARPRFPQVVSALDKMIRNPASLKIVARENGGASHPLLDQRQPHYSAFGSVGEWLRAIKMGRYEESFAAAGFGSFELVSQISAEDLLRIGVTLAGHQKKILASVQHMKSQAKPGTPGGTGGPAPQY
Sequence of Mitogen-activated protein kinase 14 (Homo sapiens) (Q16539 whole entry, the tested form may be a part): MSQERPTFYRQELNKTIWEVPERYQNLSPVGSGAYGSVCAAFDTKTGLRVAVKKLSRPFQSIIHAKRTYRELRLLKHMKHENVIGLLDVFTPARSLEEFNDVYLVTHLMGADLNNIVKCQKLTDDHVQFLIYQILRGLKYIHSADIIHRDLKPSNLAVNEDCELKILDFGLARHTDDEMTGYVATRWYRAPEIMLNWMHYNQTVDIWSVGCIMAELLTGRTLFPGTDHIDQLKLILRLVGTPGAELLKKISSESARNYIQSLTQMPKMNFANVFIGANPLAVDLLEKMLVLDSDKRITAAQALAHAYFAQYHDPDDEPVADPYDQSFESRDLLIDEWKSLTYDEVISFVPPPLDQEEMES
Sequence of Protein kinase C zeta type (Homo sapiens) (Q05513 whole entry, the tested form may be a part): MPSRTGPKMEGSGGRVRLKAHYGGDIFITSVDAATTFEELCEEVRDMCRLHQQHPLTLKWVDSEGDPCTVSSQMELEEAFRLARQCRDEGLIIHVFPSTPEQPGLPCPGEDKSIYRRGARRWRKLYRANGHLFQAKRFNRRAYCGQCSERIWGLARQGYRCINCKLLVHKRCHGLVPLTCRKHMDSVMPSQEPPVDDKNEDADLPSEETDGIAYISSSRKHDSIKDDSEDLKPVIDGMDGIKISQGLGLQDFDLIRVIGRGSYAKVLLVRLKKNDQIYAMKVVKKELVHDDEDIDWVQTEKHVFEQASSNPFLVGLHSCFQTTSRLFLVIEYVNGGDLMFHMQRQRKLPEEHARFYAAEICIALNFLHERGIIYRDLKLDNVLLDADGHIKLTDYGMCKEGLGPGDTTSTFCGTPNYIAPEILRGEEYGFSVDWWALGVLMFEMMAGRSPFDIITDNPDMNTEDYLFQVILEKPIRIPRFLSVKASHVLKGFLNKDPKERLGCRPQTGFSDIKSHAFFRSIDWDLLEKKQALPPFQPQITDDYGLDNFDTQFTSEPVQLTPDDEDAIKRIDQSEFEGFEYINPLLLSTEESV

SMILES: Cc1cccc(-c2nc(N)sc2-c2ccc3ncccc3n2)c1
- Activity [1]: 89%
- Activity [2]: 100%
- Activity [3]: 110%
- Activity [4]: 99%
- Activity [5]: 9%
- Activity [6]: 123%
- inhibition [7]: 86%
- Activity [8]: 119%
- Activity [9]: 119%
- Activity [10]: 128%
- Activity [11]: 108%
- Activity [12]: 132%
- Activity [13]: 125%
- Activity [14]: 91%
- Activity [15]: 96%
- Activity [16]: 119%
- Activity [17]: 77%
- Activity [18]: 113%
- Activity [19]: 124%
- inhibition [20]: 91%
- Activity [21]: 91%
- Activity [22]: 79%
- Activity [23]: 91%
- Activity [24]: 120%
- Activity [25]: 107%
- inhibition [26]: 47%
